US9670142B2, “1,3-diaminocyclopentane carboxamide derivatives” (Merck Patent GmbH, priority 2013, dated 2017)

The compounds below were run against human fatty acid synthase FASN (Homo sapiens (Human), UniProt P49327) (assay: Biochemical activity testing of human fatty acid synthase FASN (NADPH fluorescence intensity enzyme assay)). Conditions: human recombinant full-length fatty acid synthase.
Method in brief: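 In-house Sf9-expressed full-length enzyme (3 μL of 40 nM) in 50 mM potassium phosphate pH 7.0 with glutathione, BSA and Tween-20, plus NADPH (2 μL of 200 μM), preincubated ≥15 min with compound (10 concentrations from 30 μM final, 1% DMSO). Acetyl-CoA/malonyl-CoA added; NADPH fluorescence (ex 340/em 460 nm) read before and after 30 min at room temperature, difference used for IC50.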

Chain of human fatty acid synthase FASN (P49327 whole entry): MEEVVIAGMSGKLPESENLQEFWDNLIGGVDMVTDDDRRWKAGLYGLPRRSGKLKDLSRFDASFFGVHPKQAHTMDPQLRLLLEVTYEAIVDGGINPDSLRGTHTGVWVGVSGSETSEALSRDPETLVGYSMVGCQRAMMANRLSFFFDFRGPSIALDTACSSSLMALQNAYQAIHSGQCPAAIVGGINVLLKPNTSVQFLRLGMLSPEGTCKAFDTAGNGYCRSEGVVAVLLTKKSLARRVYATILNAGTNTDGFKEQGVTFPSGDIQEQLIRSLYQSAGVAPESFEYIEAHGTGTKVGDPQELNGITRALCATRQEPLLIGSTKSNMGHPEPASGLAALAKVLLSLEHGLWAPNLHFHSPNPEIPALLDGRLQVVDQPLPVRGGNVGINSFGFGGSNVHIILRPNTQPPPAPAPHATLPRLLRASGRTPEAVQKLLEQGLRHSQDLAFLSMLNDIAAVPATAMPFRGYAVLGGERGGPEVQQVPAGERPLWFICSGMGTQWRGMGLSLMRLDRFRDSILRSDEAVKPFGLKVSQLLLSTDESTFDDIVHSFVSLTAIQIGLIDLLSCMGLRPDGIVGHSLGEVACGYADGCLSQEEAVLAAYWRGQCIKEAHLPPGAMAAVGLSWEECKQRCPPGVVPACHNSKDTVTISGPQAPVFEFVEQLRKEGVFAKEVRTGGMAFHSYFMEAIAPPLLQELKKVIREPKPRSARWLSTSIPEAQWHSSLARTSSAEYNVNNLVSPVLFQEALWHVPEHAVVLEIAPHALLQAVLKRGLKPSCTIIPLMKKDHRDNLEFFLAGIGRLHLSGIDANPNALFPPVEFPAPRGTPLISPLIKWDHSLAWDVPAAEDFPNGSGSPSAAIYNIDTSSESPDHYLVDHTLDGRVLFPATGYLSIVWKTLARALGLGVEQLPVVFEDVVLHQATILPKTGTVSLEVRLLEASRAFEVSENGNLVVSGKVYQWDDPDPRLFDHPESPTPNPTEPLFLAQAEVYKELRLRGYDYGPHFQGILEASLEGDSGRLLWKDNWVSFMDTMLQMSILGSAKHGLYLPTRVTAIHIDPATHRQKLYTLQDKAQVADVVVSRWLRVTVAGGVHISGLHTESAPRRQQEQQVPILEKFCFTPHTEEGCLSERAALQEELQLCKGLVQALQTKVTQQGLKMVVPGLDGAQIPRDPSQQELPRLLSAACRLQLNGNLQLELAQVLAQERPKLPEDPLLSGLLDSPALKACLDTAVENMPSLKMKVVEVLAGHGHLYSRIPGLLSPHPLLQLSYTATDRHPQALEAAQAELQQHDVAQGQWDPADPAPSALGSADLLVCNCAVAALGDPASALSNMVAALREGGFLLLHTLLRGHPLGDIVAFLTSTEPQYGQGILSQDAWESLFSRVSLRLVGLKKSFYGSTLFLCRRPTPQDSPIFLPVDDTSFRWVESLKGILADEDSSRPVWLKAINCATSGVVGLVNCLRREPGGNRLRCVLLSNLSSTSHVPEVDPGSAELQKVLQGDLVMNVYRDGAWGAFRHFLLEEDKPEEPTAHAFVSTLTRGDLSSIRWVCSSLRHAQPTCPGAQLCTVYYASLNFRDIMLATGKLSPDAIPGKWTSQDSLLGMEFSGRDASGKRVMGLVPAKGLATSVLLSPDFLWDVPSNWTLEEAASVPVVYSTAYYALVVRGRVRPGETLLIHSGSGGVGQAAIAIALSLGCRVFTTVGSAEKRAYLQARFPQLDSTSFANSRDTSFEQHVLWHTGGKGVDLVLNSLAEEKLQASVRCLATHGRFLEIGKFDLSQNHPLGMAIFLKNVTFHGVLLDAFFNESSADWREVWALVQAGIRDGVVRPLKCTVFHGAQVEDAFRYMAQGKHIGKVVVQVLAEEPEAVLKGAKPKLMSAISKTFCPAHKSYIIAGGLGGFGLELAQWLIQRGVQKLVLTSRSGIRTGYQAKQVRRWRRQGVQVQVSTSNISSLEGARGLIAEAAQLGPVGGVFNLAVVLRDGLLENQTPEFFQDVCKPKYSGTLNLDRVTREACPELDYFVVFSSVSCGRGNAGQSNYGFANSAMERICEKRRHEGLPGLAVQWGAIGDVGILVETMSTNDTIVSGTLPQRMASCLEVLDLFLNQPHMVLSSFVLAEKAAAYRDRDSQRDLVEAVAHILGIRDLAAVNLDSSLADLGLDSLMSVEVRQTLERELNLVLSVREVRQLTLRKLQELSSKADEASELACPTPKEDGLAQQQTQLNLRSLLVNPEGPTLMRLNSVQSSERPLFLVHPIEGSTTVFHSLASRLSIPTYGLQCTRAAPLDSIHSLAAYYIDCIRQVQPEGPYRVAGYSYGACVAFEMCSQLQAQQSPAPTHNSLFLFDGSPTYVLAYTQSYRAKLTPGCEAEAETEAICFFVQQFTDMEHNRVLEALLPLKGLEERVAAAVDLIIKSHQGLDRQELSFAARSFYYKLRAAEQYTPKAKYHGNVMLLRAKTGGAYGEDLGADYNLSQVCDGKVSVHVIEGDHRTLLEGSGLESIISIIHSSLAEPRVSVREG

First: CN(C(=O)c1ccc(-c2nc3ccccc3o2)cc1)[C@@H]1CC[C@@H](NC(=O)Cc2ccccc2)C1 [Compound A167, 4-benzoxazol-2-yl-N-methyl-N-((1R,3R)-3-phenylacetylamino-cyclopentyl)-benzamide]
Second: CN(C(=O)c1ccc(-c2nc3ccccc3o2)cc1)[C@@H]1CC[C@H](NC(=O)c2ccncc2)C1 [Compound A22, N-{(1S,3R)-3-[(4-benzoxazol-2-yl-benzoyl)-methyl-amino]-cyclopentyl}-isonicotinamide]
The IC50 of the first is higher: 3000 to 50000 nM for the first, 300 to 3000 nM for the second. The second is the more potent here.

First: CC(=O)N[C@H](C(=O)N[C@H]1CC[C@@H](N(C)C(=O)c2ccc(-c3nc4ccccc4o3)cc2)C1)C(C)C [Compound A43, N-[(1R,3S)-3-((S)-2-acetylamino-3-methyl-butyrylamino)-cyclopentyl]-4-benzoxazol-2-yl-N-methyl-benzamide]
Second: CC(=O)N[C@@H](C(=O)N[C@H]1CC[C@@H](N(C)C(=O)c2ccc(-c3nc4ccccc4o3)cc2)C1)C(C)C [Compound A42, N-[(1R,3S)-3-((R)-2-acetylamino-3-methyl-butyrylamino)-cyclopentyl]-4-benzoxazol-2-yl-N-methyl-benzamide]
The IC50 of the first is lower: 300 to 3000 nM for the first, 3000 to 50000 nM for the second. The first is the more potent here.

CCC(F)(F)C(=O)N[C@H]1CC[C@@H](N(C)C(=O)c2ccc(-c3nc4ccccc4o3)cc2)C1 [Compound A27, 4-benzoxazol-2-yl-N-[(1R,3S)-3-(2,2-difluoro-butyrylamino)-cyclopentyl]-N-methyl-benzamide] and CC[C@@H](C)CC(=O)N[C@H]1CC[C@@H](N(C)C(=O)c2ccc(-c3nc4ccccc4o3)cc2)C1 [Compound A31, 4-benzoxazol-2-yl-N-methyl-N-[(1R,3S)-3-((R)-3-methyl-pentanoylamino)-cyclopentyl]-benzamide] cannot be ordered by IC50: < 300 nM for the first, < 300 nM for the second.

CCC(=O)N[C@H]1CC[C@@H](N(C)C(=O)c2ccc(-c3ccc4c(ccn4C)c3)cc2)C1 [Compound A80, N-methyl-4-(1-methyl-1H-indol-5-yl)-N-((1R,3S)-3-propionylamino-cyclopentyl)-benzamide] and CCC(=O)N[C@H]1CC[C@@H](N(C)C(=O)c2ccc(-c3ccc4c(ccn4C)c3)cc2C)C1 [Compound A119, 2,N-dimethyl-4-(1-methyl-1H-indol-5-yl)-N-((1R,3S)-3-propionylamino-cyclopentyl)-benzamide] cannot be ordered by IC50: < 300 nM for the first, < 300 nM for the second.

CCC(=O)N[C@H]1CC[C@@H](N(C)C(=O)c2ccc(-c3ccc4[nH]ccc4c3)c(F)c2)C1 [Compound A112, 3-fluoro-4-(1H-indol-5-yl)-N-methyl-N-((1R,3S)-3-propionylamino-cyclopentyl)-benzamide] and CCC(=O)N[C@H]1CC[C@@H](N(C)C(=O)c2ccc(-c3ccc4[nH]ccc4c3)cc2F)C1 [Compound A106, 2-fluoro-4-(1H-indol-5-yl)-N-methyl-N-((1R,3S)-3-propionylamino-cyclopentyl)-benzamide] cannot be ordered by IC50: < 300 nM for the first, < 300 nM for the second.

CCC(=O)N[C@H]1CC[C@@H](N(C)C(=O)c2ccc(-c3nc4ccccc4s3)cc2)C1 [Compound A6, 4-benzothiazol-2-yl-N-methyl-N-((1R,3S)-3-propionylamino-cyclopentyl)-benzamide] and CCC(=O)N[C@H]1CC[C@@H](N(C)C(=O)c2ccc(-c3nc4cccc(F)c4o3)cc2)C1 [Compound A49, 4-(7-fluoro-benzoxazol-2-yl)-N-methyl-N-((1R,3S)-3-propionylamino-cyclopentyl)-benzamide] cannot be ordered by IC50: < 300 nM for the first, < 300 nM for the second.

CCC(=O)N[C@H]1CC[C@@H](N(C)C(=O)c2ccc(-c3nc4cc(Cl)ccc4o3)cc2)C1 [Compound A9, 4-(5-chloro-benzoxazol-2-yl)-N-methyl-N-((1R,3S)-3-propionylamino-cyclopentyl)-benzamide] and CN(C(=O)c1ccc(-c2nc3cc(Cl)ccc3o2)cc1)[C@@H]1CC[C@H](NC(=O)[C@@H]2CCCO2)C1 [Compound A174] cannot be ordered by IC50: < 300 nM for the first, < 300 nM for the second.

CCC(=O)N[C@H]1CC[C@@H](N(C)C(=O)c2ccc(-c3ccc(C#N)cc3)cc2)C1 [Compound A12, 4′-cyano-biphenyl-4-carboxylic acid methyl-((1R,3S)-3-propionylamino-cyclopentyl)-amide] and CCC(=O)N[C@H]1CC[C@@H](N(C)C(=O)c2ccc(-c3ccc(Cl)cc3)cc2)C1 [Compound A5, 4′-chloro-biphenyl-4-carboxylic acid methyl-((1R,3S)-3-propionylamino-cyclopentyl)-amide] cannot be ordered by IC50: < 300 nM for the first, < 300 nM for the second.

Compared with CCC(=O)N[C@H]1CC[C@@H](N(C)C(=O)c2ccc(-c3ccc(C(N)=O)cc3)cc2)C1 [Compound A57, biphenyl-4,4′-dicarboxylic acid 4′-amide 4-[methyl-((1R,3S)-3-propionylamino-cyclopentyl)-amide]], CCC(=O)N[C@H]1CC[C@@H](N(C)C(=O)c2ccc(-c3ccc(C(C)(C)C)cc3)cc2)C1 [Compound A55, tert-butyl-biphenyl-4-carboxylic acid methyl-((1R,3S)-3-propionylamino-cyclopentyl)-amide] is higher in IC50: < 300 nM for the first, 3000 to 50000 nM for the second.

CCC(=O)N[C@H]1CC[C@@H](N(C)C(=O)c2ccc(-c3ccc(C(=O)OC)c(F)c3)cc2)C1 [Compound A69, 3-fluoro-4′-[methyl-((1R,3S)-3-propionylamino-cyclopentyl)-carbamoyl]-biphenyl-4-carboxylic acid methyl ester] and CCC(=O)N[C@H]1CC[C@@H](N(C)C(=O)c2ccc(-c3ccc(C(=O)O)c(C)c3)cc2)C1 [Compound A52, 3-methyl-4′-[methyl-((1R,3S)-3-propionylamino-cyclopentyl)-carbamoyl]-biphenyl-4-carboxylic acid] cannot be ordered by IC50: < 300 nM for the first, < 300 nM for the second.

First: CCC(=O)N[C@H]1CC[C@@H](N(C)C(=O)c2ccc(-c3cc(F)c(C#N)c(F)c3)cc2)C1 [Compound A61, 4′-cyano-3′,5′-difluoro-biphenyl-4-carboxylic acid methyl-((1R,3S)-3-propionylamino-cyclopentyl)-amide]
Second: CCC(=O)N[C@H]1CC[C@@H](N(C)C(=O)c2ccc(-c3ccc(OC)cc3F)cc2)C1 [Compound A99, 2′-fluoro-4′-methoxy-biphenyl-4-carboxylic acid methyl-((1R,3S)-3-propionylamino-cyclopentyl)-amide]
The IC50 of the first is higher: 3000 to 50000 nM for the first, < 300 nM for the second. The second is the more potent here.

First: CCC(=O)N[C@H]1CC[C@@H](N(C)C(=O)c2cnc(-c3cc(F)c4[nH]ccc4c3)c(F)c2)C1 [Compound A142, 5-fluoro-6-(7-fluoro-1H-indol-5-yl)-N-methyl-N-((1R,3S)-3-propionylamino-cyclopentyl)-nicotinamide]
Second: CCC(=O)N[C@H]1CC[C@@H](N(C)C(=O)c2cnc(-c3ccc4[nH]ccc4c3)nc2)C1 [Compound A139, 2-(1H-indol-5-yl)-pyrimidine-5-carboxylic acid methyl-((1R,3S)-3-propionylamino-cyclopentyl)-amide]
The IC50 of the first is higher: 300 to 3000 nM for the first, < 300 nM for the second.

CCC(=O)N[C@H]1CC[C@@H](N(C)C(=O)c2ccc(-c3ccc4cc[nH]c4c3)cc2)C1 [Compound A67, 4-(1H-indol-6-yl)-N-methyl-N-((1R,3S)-3-propionylamino-cyclopentyl)-benzamide] and CCC(=O)N[C@H]1CC[C@@H](N(C)C(=O)c2ccc(-c3ccc4[nH]c(=O)[nH]c4c3)cc2)C1 [Compound A93, N-methyl-4-(2-oxo-2,3-dihydro-1H-benzimidazol-5-yl)-N-((1R,3S)-3-propionylamino-cyclopentyl)-benzamide] cannot be ordered by IC50: < 300 nM for the first, < 300 nM for the second.

Compared with CCC(=O)N[C@H]1CC[C@@H](N(C)C(=O)c2ccc(-c3ccc(OCC4CC4)cc3)cc2)C1 [Compound A70, 4′-cyclopropylmethoxy-biphenyl-4-carboxylic acid methyl-((1R,3S)-3-propionylamino-cyclopentyl)-amide], CCC(=O)N[C@H]1CC[C@@H](N(C)C(=O)c2ccc(-c3ccc(OC(F)(F)F)cc3)cc2)C1 [Compound A62, 4′-trifluoromethoxy-biphenyl-4-carboxylic acid methyl-((1R,3S)-3-propionylamino-cyclopentyl)-amide] is higher in IC50: < 300 nM for the first, 300 to 3000 nM for the second.

Compared with CCC(=O)N[C@H]1CC[C@@H](N(C)C(=O)c2ccc(-c3ncc[nH]3)cc2)C1 [Compound A11, 4-(1H-imidazol-2-yl)-N-methyl-N-((1R,3S)-3-propionylamino-cyclopentyl)-benzamide], CCC(=O)N[C@H]1CC[C@@H](N(C)C(=O)c2ccc(-c3ccc4[nH]ccc4c3)nc2)C1 [Compound A117, 6-(1H-indol-5-yl)-N-methyl-N-((1R,3S)-3-propionylamino-cyclopentyl)-nicotinamide] is lower in IC50: 3000 to 50000 nM for the first, < 300 nM for the second.

First: CCC(=O)N[C@H]1CC[C@@H](N(C)C(=O)c2ccc(-c3cc4cn[nH]c4cc3C)cn2)C1 [Compound A103, 5-(6-methyl-1H-indazol-5-yl)-pyridine-2-carboxylic acid methyl-((1R,3S)-3-propionylamino-cyclopentyl)-amide]
Second: CCC(=O)N[C@H]1CC[C@@H](N(C)C(=O)c2ccc(-c3ccc4c(c3)C(F)(F)C(=O)N4)nc2)C1 [Compound A147, 6-(3,3-difluoro-2-oxo-2,3-dihydro-1H-indol-5-yl)-N-methyl-N-((1R,3S)-3-propionylamino-cyclopentyl)-nicotinamide]
The IC50 of the first is lower: 300 to 3000 nM for the first, 3000 to 50000 nM for the second.

First: CN(C(=O)c1ccc(-c2nc3ccccc3o2)cc1)[C@@H]1CC[C@H](NC(=O)[C@H]2CCCO2)C1 [Compound A40, (R)-tetrahydro-furan-2-carboxylic acid {(1S,3R)-3-[(4-benzoxazol-2-yl-benzoyl)-methyl-amino]-cyclopentyl}-amide]
Second: CN(C(=O)c1ccc(-c2nc3ccccc3o2)cc1)[C@@H]1CC[C@H](NC(=O)C[C@@H]2CCC(=O)N2)C1 [Compound A45, 4-benzoxazol-2-yl-N-methyl-N-{(1R,3S)-3-[2-((S)-5-oxo-pyrrolidin-2-yl)-acetylamino]-cyclopentyl}-benzamide]
The IC50 of the first is lower: < 300 nM for the first, 3000 to 50000 nM for the second.
